# Measurements from US7385086B2 (priority 1997, dated 2008).
# Like-named read-outs stand apart in the source and are kept apart here.
# Key:
# [1] = test system: M. tuberculosis (strain H37Rv); experiment: MIC against M. tuberculosis strain H37Rv; type: cell-based; conditions: Mycobacterium tuberculosis
# [2] = test system: M. avium-intracellulare; experiment: MIC / growth inhibition against M. avium-intracellulare; type: cell-based, Mycobacterium avium-intracellulare
# [3] = test system: M. bovis BCG; experiment: microbe, parasite or virus in culture; type: cell-based; conditions: Mycobacterium tuberculosis variant bovis BCG
# [4] = test system: mycolic acid synthesis in M. avium-intracellulare; experiment: Metabolic labeling, two-dimensional TLC of mycolic acids, M. avium-intracellulare; type: cell-based, Mycobacterium avium-intracellulare; conditions: M. avium-intracellulare cultures treated with 12.5 μg/ml
# [5] = test system: mycolic acid synthesis in M. bovis BCG; type: cell-based, Mycobacterium bovis; conditions: M. bovis BCG in the presence of III-50
# [6] = test system: M. bovis BCG cell wall; type: cell-based, Mycobacterium bovis; conditions: dividing M. bovis BCG in the presence of III-50
# [7] = M. tuberculosis strain H37Rv, in vitro, read-out: MIC MTB
# [8] = M. avium-intracellulare, routinely isoniazid resistant
# [9] = Mycobacterium avium-intracellulare, M. avium-intracellulare, in vitro, read-out: MIC MAI
Compound,"MIC [1, 7] [µg/mL]",other results
CCCCCCCCCCS(=O)(=O)C=CC(N)=O [JRG-I-89-3],6.25,–
CCCCCCCCCCS(=O)(=O)CC(=O)NCC(O)CO (stereo not shown) [SI-48],> 25,–
CCCCCCCC[S+]([O-])CC(=O)OCc1ccccc1 (stereo not shown) [HIII-206a],6.25,–
CCCCCCCCCCS(=O)(=O)/C=C/C(=O)O [JRG-I-43],50,–
"NNC(=O)c1ccncc1 [isoniazid, reference compound]",–,"isoniazid resistance level [2, 8]: > 2.5 µg/mL"
CCCCCCCCCCS(=O)(=O)/C=C/C(=O)OC [JRG-I-31],–,melting point: 62 to 63 °C
CCCCCCCCS(=O)(=O)NCC(=O)O [HIII-56],> 25,MIC ([3]; read-out: MIC BCG): > 25 µg/mL
CCCCCCCCCCS(=O)(=O)CCC(N)=O [DI-59],> 25,–
CCCCCCCCCCS(=O)(=O)CC(=O)NCCO [SI-45],12.5,MIC ([3]; read-out: MIC BCG): 25 µg/mL
CC(C)CCCC(C)CCS(=O)(=O)CC(N)=O (stereo not shown) [SI-52],6.25,–
CCCCCCCC[S+]([O-])CC(=O)OC (stereo not shown) [HIII-302],> 25,–
CCCCCCCCCCS(=O)(=O)/C=C/C(N)=O [JRG-I-89-2],12.5,–
CCCCCCCCS(=O)(=O)CC(=O)OCc1ccccc1 [HIII-206b],12.5,–
CCCCCCCCCCS(=O)(=O)/C=C\C(N)=O [JRG-I-89-1],25,–
CCCCCCCCCCS(=O)(=O)CC(N)=O [SI-73],3.12,"MIC ([1]; H37RV): 3.12 µg/mL; MIC [2, 9]: 12.5 µg/mL; MIC ([2]; dose-response curves, M. avium-intracellular): 12.50 µg/mL"
CCCCCCCCCC[S+]([O-])CC(N)=O (stereo not shown) [SI-46],6.25,–
"CCCCCCCCS(=O)(=O)CC(N)=O [HIII-50, n-Octanesulphonylacetamide]",6.25,"MIC ([1]; H37RV): 6.5 µg/mL; MIC [3]: 6.25 µg/mL; MIC ([3]; read-out: MIC BCG): 6.25 µg/mL; growth inhibition [2, 8]: inhibits; MIC [2, 9]: 25 µg/mL; mycolic acids by phosphorimage of 2D TLC [4]: undetectable; mycolic acids by phosphorimage of 2D TLC [5]: significantly reduced; cell wall morphology in electron micrographs [6]: disruption of the cell wall"
CCCCCCCCCCS(=O)(=O)C=CC(=O)OC (mixture of isomers) [JRG-I-31(mixture of cisand trans)],50,–
